Data taken from patent US11033539B2, “Compounds of formulas (VII), (VIII), (IX), (XI), (XII), (XIII), and (XIV) as muscarinic receptor 4(M4) antagonists for treating neurological diseases” (Neurocrine Biosciences, Inc., priority 2015, dated 2021).

target: human M4 receptor (Homo sapiens (Human), UniProt P08173); test: Radioligand (tritiated N-methylscopolamine) binding assay, M4; conditions: Ki against the M4 receptor; membranes from CHO cells expressing human M4; tritiated N-methylscopolamine 1.5 nM; read-out: Ki
Protocol: Binding affinity (Ki) of compounds was measured by inhibition of radioligand binding to membranes from CHO cells expressing human M1, M2, M3, M4 and M5 receptors. Membranes were prepared by nitrogen cavitation and differential centrifugation as previously described (Hoare et al., Mol. Pharmacol. 2003 March; 63(3): 751-65). The radioligand employed was tritiated N-methylscopolamine, used at a concentration of 1.5 nM. A dose-response of twelve concentrations of compound was used, ranging from 10 μM to […]. The assay buffer was 50 mM HEPES, 100 mM NaCl, 5 mM MgCl2, 1 mM ethylenediaminetetraacetic acid, pH-adjusted to pH 7.4. Membranes, radioligand and compound were incubated together for 90 minutes at 37° C., in a total volume of 150 μl in a 96-well plate. Receptor-bound radioligand was then collected by harvesting the assay over glass fiber filters pretreated with polyethylenimine to trap the cell membranes, using rapid vacuum filtration. Harvesting and radioactivity counting was conducted as previously described (see, e.g., Hoare et al., Mol. Pharmacol. 2003 63(3):751-65); Erratum at Mol. Pharmacol. 2005 July; 68(1): 260).

Sequence of human M4 receptor (P08173 whole entry): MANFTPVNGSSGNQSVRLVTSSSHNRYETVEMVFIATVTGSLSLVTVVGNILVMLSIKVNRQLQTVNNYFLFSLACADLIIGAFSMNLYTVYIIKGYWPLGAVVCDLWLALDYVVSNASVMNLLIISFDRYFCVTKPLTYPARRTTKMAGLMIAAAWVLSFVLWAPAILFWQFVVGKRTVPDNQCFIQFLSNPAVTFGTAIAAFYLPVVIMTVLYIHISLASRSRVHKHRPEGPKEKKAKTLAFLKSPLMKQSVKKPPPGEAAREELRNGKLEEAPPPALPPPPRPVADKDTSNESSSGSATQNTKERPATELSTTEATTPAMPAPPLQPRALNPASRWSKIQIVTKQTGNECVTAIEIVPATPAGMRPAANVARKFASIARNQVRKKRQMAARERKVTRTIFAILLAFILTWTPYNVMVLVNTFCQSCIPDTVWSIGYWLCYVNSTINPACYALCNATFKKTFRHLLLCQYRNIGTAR

Row | Compound | Ki [nM]
1 | 4-(benzyloxy)-N-{2-[1-(pyridin-3-ylmethyl)piperidin-4-yl]ethyl}benzamide [11-20] | 100 to 1000
2 | 4-phenoxy-N-{2-[1-(3-phenylpropyl)piperidin-4-yl]ethyl}benzamide [11-28] | 100 to 1000
3 | CC(=O)O[C@H](CNC(=O)N1CCN(c2ccc(F)c(C#N)c2)C[C@H]1C)C1CCN(Cc2ccccc2)CC1 [3-2, (1S)-1-(1-benzylpiperidin-4-yl)-2-{[(2R)-4-(3-cyano-4-fluorophenyl)-2-methylpiperazine-1-carbonyl]amino}ethyl acetate] | 10 to 100
4 | C[C@@H]1CN(c2ccc(F)c(C#N)c2)CCN1C(=O)N(C)C[C@@H](O)C1CCN(Cc2ccccc2)CC1 [3-3, (2R)-N-[(2S)-2-(1-benzylpiperidin-4-yl)-2-hydroxyethyl]-4-(3-cyano-4-fluorophenyl)-N,2-dimethylpiperazine-1-carboxamide] | 100 to 1000
5 | C[C@@H]1CN(c2ccc(F)c(C#N)c2)CCN1C(=O)N(C)CCC1CCN(Cc2ccccc2)CC1 [3-4, (2R)-N-[2-(1-benzylpiperidin-4-yl)ethyl]-4-(3-cyano-4-fluorophenyl)-N,2-dimethylpiperazine-1-carboxamide] | 100 to 1000
6 | COc1ccnc(N2CCN(C(=O)NCCC3CCN(Cc4ccccc4)CC3)[C@H](C)C2)n1 [4-2, (2R)-N-[2-(1-benzylpiperidin-4-yl)ethyl]-4-(4-methoxypyrimidin-2-yl)-2-methylpiperazine-1-carboxamide] | 100 to 1000
7 | Cc1cc(N2CCN(C(=O)NCCC3CCN(Cc4ccccc4)CC3)[C@H](C)C2)ccc1C#N [4-4, (2R)-N-[2-(1-benzylpiperidin-4-yl)ethyl]-4-(4-cyano-3-methylphenyl)-2-methylpiperazine-1-carboxamide] | 100 to 1000
8 | COc1cccnc1N1CCN(C(=O)NCCC2CCN(Cc3ccccc3)CC2)[C@H](C)C1 [4-8, (2R)-N-[2-(1-benzylpiperidin-4-yl)ethyl]-4-(3-methoxypyridin-2-yl)-2-methylpiperazine-1-carboxamide] | 100 to 1000
9 | Cc1ccc(N2CCN(C(=O)NCCC3CCN(Cc4ccccc4)CC3)[C@H](C)C2)cn1 [4-9, (2R)-N-[2-(1-benzylpiperidin-4-yl)ethyl]-2-methyl-4-(6-methylpyridin-3-yl)piperazine-1-carboxamide] | 100 to 1000
10 | C[C@@H]1CN(c2cncc(C#N)c2)CCN1C(=O)NCCC1CCN(Cc2ccccc2)CC1 [4-23, (2R)-N-[2-(1-benzylpiperidin-4-yl)ethyl]-4-(5-cyanopyridin-3-yl)-2-methylpiperazine-1-carboxamide] | 100 to 1000
11 | C[C@@H]1CN(c2ccc(C#N)cn2)CCN1C(=O)NCCC1CCN(Cc2ccccc2)CC1 [4-31, (2R)-N-[2-(1-benzylpiperidin-4-yl)ethyl]-4-(5-cyanopyridin-2-yl)-2-methylpiperazine-1-carboxamide] | 10 to 100
12 | C[C@@H]1CN(c2ccc(F)cc2F)CCN1C(=O)NCCC1CCN(Cc2ccccc2)CC1 [4-33, (2R)-N-[2-(1-benzylpiperidin-4-yl)ethyl]-4-(2,4-difluorophenyl)-2-methylpiperazine-1-carboxamide] | 10 to 100
13 | C[C@@H]1CN(c2ccc(C(F)(F)F)nc2)CCN1C(=O)NCCC1CCN(Cc2ccccc2)CC1 [4-34, (2R)-N-[2-(1-benzylpiperidin-4-yl)ethyl]-2-methyl-4-[6-(trifluoromethyl)pyridin-3-yl]piperazine-1-carboxamide] | 10 to 100
14 | C[C@@H]1CN(c2ccc(F)nc2)CCN1C(=O)NCCC1CCN(Cc2ccccc2)CC1 [4-35, (2R)-N-[2-(1-benzylpiperidin-4-yl)ethyl]-4-(6-fluoropyridin-3-yl)-2-methylpiperazine-1-carboxamide] | 10 to 100
15 | C[C@@H]1CN(c2cc(F)c(F)cc2F)CCN1C(=O)NCCC1CCN(Cc2ccccc2)CC1 [4-36, (2R)-N-[2-(1-benzylpiperidin-4-yl)ethyl]-2-methyl-4-(2,4,5-trifluorophenyl)piperazine-1-carboxamide] | 10 to 100
16 | C[C@@H]1CN(c2cccc(F)c2F)CCN1C(=O)NCCC1CCN(Cc2ccccc2)CC1 [4-37, (2R)-N-[2-(1-benzylpiperidin-4-yl)ethyl]-4-(2,3-difluorophenyl)-2-methylpiperazine-1-carboxamide] | 10 to 100
17 | C[C@@H]1CN(c2nc(C#N)cc(C#N)n2)CCN1C(=O)NCCC1CCN(Cc2ccccc2)CC1 [4-38, (2R)-N-[2-(1-benzylpiperidin-4-yl)ethyl]-4-(4,6-dicyanopyrimidin-2-yl)-2-methylpiperazine-1-carboxamide] | 10 to 100
18 | COc1cc(C#N)cc(N2CCN(C(=O)NCCC3CCN(Cc4ccccc4)CC3)[C@H](C)C2)c1 [4-39, (2R)-N-[2-(1-benzylpiperidin-4-yl)ethyl]-4-(3-cyano-5-methoxyphenyl)-2-methylpiperazine-1-carboxamide] | 10 to 100

Next, values leading:

Row | Ki [nM] | Compound
19 | 10 to 100 | CO[C@H](CNC(=O)N1CCN(c2ccc(F)c(C#N)c2)C[C@H]1C)C1CCN(Cc2ccccc2)CC1 [3-6, (2R)-N-[(2S)-2-(1-benzylpiperidin-4-yl)-2-methoxyethyl]-4-(3-cyano-4-fluorophenyl)-2-methylpiperazine-1-carboxamide]
20 | 10 to 100 | C[C@@H]1CN(c2ccc(OC(F)(F)F)c(C#N)c2)CCN1C(=O)NCCC1CCN(Cc2ccc(I)cc2)CC1 [3-7, (2R)-4-[3-cyano-4-(trifluoromethoxy)phenyl]-N-(2-{1-[(4-iodophenyl)methyl]piperidin-4-yl}ethyl)-2-methylpiperazine-1-carboxamide]
21 | 10 to 100 | C[C@@H]1CN(c2nccc(C#N)n2)CCN1C(=O)NCCC1CCN(Cc2ccccc2)CC1 [3-15, (2R)-N-[2-(1-benzylpiperidin-4-yl)ethyl]-4-(4-cyanopyrimidin-2-yl)-2-methylpiperazine-1-carboxamide]
22 | 10 to 100 | C[C@@H]1CN(c2cc(F)c(F)c(F)c2)CCN1C(=O)NCCC1(CO)CCN(Cc2ccccc2)CC1 [3-20, (2R)-N-{2-[1-benzyl-4-(hydroxymethyl)piperidin-4-yl]ethyl}-2-methyl-4-(3,4,5-trifluorophenyl)piperazine-1-carboxamide]
23 | 10 to 100 | C[C@H]1CN(c2cc(F)c(F)c(F)c2)CCN1C(=O)NCCC1CCN(Cc2ccccc2)CC1 [4-24, (2S)-N-[2-(1-benzylpiperidin-4-yl)ethyl]-2-methyl-4-(3,4,5-trifluorophenyl)piperazine-1-carboxamide]
24 | 10 to 100 | C[C@@H]1CN(c2ccc(C#N)cc2)CCN1C(=O)NCCC1CCN(Cc2ccccc2)CC1 [4-25, (2R)-N-[2-(1-benzylpiperidin-4-yl)ethyl]-4-(4-cyanophenyl)-2-methylpiperazine-1-carboxamide]
25 | 10 to 100 | COc1nc(N2CCN(C(=O)NCCC3CCN(Cc4ccccc4)CC3)[C@H](C)C2)ncc1C#N [4-26, (2R)-N-[2-(1-benzylpiperidin-4-yl)ethyl]-4-(5-cyano-4-methoxypyrimidin-2-yl)-2-methylpiperazine-1-carboxamide]
26 | 10 to 100 | COc1nc(N2CCN(C(=O)NCCC3CCN(Cc4ccccc4)CC3)[C@H](C)C2)ncc1F [4-27, (2R)-N-[2-(1-benzylpiperidin-4-yl)ethyl]-4-(5-fluoro-4-methoxypyrimidin-2-yl)-2-methylpiperazine-1-carboxamide]
27 | 10 to 100 | C[C@@H]1CN(c2ccc(F)cc2)CCN1C(=O)NCCC1CCN(Cc2ccccc2)CC1 [4-30, (2R)-N-[2-(1-benzylpiperidin-4-yl)ethyl]-4-(4-fluorophenyl)-2-methylpiperazine-1-carboxamide]
